Source: the RepoRT retention time repository

Assay: HILIC, Waters Atlantis Premier BEH Z-HILIC, 100 × 2.1 mm, 1.7 µm, 40 °C, 0.15 mL/min, estimated dead time 1.5 min; A: water + 20 mM ammonium carbonate + 5 µM medronic acid; B: 10% water + 90% acetonitrile + 2 mM ammonium carbonate + 0.5 µM medronic acid; gradient (min/%B) 0/95 18/60 18.1/20 21.5/20 22/95 23.5/95 25.5/95
Conditions: stereoisomer not certain
`O=C(O)CCC(=O)C(=O)O` [2-Oxoglutaric acid] gave an LC retention time of 9.44 min.
Molecule `O=C(O)CCC(O)C(=O)O` (stereo not given) [2-hydroxy glutaric acid] has an LC retention time of 10 min.
Work on `Nc1ncnc2c1ncn2C1OC(COP(=O)(O)OP(=O)(O)O)C(O)C1O` (stereo not given) [ADP] yielded an LC retention time of 12.2 min.
With `Nc1ncnc2c1ncn2C1OC(COP(=O)(O)O)C(O)C1O` (stereo not given) [AMP] the LC retention time was 9.98 min.
With `Nc1ncnc2c1ncn2C1OC(COP(=O)(O)OP(=O)(O)OP(=O)(O)O)C(O)C1O` (stereo not given) [ATP] the LC retention time was 14.3 min.
With `CC(=O)SCCNC(=O)CCNC(=O)C(O)C(C)(C)COP(=O)(O)OP(=O)(O)OCC1OC(n2cnc3c(N)ncnc32)C(O)C1OP(=O)(O)O` (stereo not given) [Acetyl-CoA] the LC retention time was 10.9 min.
Molecule `Nc1ncnc2c1ncn2C1OC(CO)C(O)C1O` (stereo not given) [Adenosine] has an LC retention time of 4.12 min.
Molecule `O=C(O)CCCCC1SCC2NC(=O)NC21` (stereo not given) [Biotin] has an LC retention time of 4.54 min.
`C[N+](C)(C)CC(O)CC(=O)[O-]` (stereo not given) [Carnitine] gave an LC retention time of 10.4 min.
Work on `O=C(O)CC(O)(CC(=O)O)C(=O)O` [Citric acid] yielded an LC retention time of 14.8 min.
With `CC(C)(COP(=O)(O)OP(=O)(O)OCC1OC(n2cnc3c(N)ncnc32)C(O)C1OP(=O)(O)O)C(O)C(=O)NCCC(=O)NCCS` (stereo not given) [CoenzymeA] the LC retention time was 12.9 min.
Molecule `Cc1cc2nc3c(=O)[nH]c(=O)nc-3n(CC(O)C(O)C(O)COP(=O)(O)OP(=O)(O)OCC3OC(n4cnc5c(N)ncnc54)C(O)C3O)c2cc1C` (stereo not given) [FAD] has an LC retention time of 7.66 min.
Work on `O=C(CO)C(O)C(O)C(O)COP(=O)(O)O` (stereo not given) [Fructose 6-phosphate] yielded an LC retention time of 12.2 min.
`O=P(O)(O)OCC1OC(O)(COP(=O)(O)O)C(O)C1O` (stereo not given) [Fructose-1,6-bisphosphate] showed an LC retention time of 16.9 min.
Molecule `Nc1nc2c(ncn2C2OC(COP(=O)(O)OP(=O)(O)OP(=O)(O)O)C(O)C2O)c(=O)[nH]1` (stereo not given) [GTP] has an LC retention time of 17.2 min.
Work on `O=P(O)(O)OCC1OC(O)C(O)C(O)C1O` (stereo not given) [Glucose-6-phosphate] yielded an LC retention time of 13.3 min.
`NC(CCC(=O)O)C(=O)O` (stereo not given) [Glutamic acid] showed an LC retention time of 10.3 min.
In the case of `NC(=O)CCC(N)C(=O)O` (stereo not given) [Glutamine], the LC retention time was 11 min.
`O=P(O)(O)OCC(O)CO` (stereo not given) [Glycerol-3-phosphate] gave an LC retention time of 10.9 min.
With `OCC1OC(O)C(O)C(O)C1O` (stereo not given) [Hexose] the LC retention time was 7.88 min.
With `O=C(O)CC(C(=O)O)C(O)C(=O)O` (stereo not given) [Isocitric acid] the LC retention time was 14.6 min.
`CCC(C)C(N)C(=O)O` (stereo not given) [Isoleucine] showed an LC retention time of 6.62 min.
With `CC(O)C(=O)O` (stereo not given) [Lactic Acid] the LC retention time was 3.43 min.
For `CC(C)CC(N)C(=O)O` (stereo not given) [Leucine], the LC retention time was 6.18 min.
With `NC(=O)C1=CN(C2OC(COP(=O)(O)OP(=O)(O)OCC3OC(n4cnc5c(N)ncnc54)C(O)C3O)C(O)C2O)C=CC1` (stereo not given) [NADH] the LC retention time was 9.07 min.
`NC(=O)C1=CN(C2OC(COP(=O)(O)OP(=O)(O)OCC3OC(n4cnc5c(N)ncnc54)C(OP(=O)(O)O)C3O)C(O)C2O)C=CC1` (stereo not given) [NADPH] showed an LC retention time of 15 min.
`NC(=O)c1ccc[n+](C2OC(COP(=O)(O)OP(=O)(O)OCC3OC(n4cnc5c(N)ncnc54)C(OP(=O)(O)O)C3O)C(O)C2O)c1` (stereo not given) [NADP] showed an LC retention time of 14.4 min.
Work on `NC(=O)c1ccc[n+](C2OC(COP(=O)(O)OP(=O)(O)OCC3OC(n4cnc5c(N)ncnc54)C(O)C3O)C(O)C2O)c1` (stereo not given) [NAD] yielded an LC retention time of 10.9 min.
Molecule `C=C(OP(=O)(O)O)C(=O)O` [PEP] has an LC retention time of 14.4 min.
`O=C(O)C(CO)OP(=O)(O)O` (stereo not given) [Phosphoglyceric acid A] gave an LC retention time of 13.4 min.
Molecule `O=C(O)CCC(=O)O` [Succinic Acid] has an LC retention time of 10.1 min.
For `O=C(CO)COP(=O)(O)O` [Triose phosphate], the LC retention time was 10.8 min.
For `CC(=O)NC1C(OP(=O)(O)OP(=O)(O)OCC2OC(n3ccc(=O)[nH]c3=O)C(O)C2O)OC(CO)C(O)C1O` (stereo not given) [UDP-GlcNAc], the LC retention time was 10.5 min.
Molecule `CCC(=O)OC(CC(=O)[O-])C[N+](C)(C)C` (stereo not given) [carnitine-C3] has an LC retention time of 6.75 min.
In the case of `O=C1CC(C(=O)O)NC(=O)N1` (stereo not given) [dihydroorotic acid], the LC retention time was 4.65 min.
